Measured values published in BindingDB's records for doi:10.7270/Q2DN43GX (The Scripps Research Institute Molecular Screening Center, 2007).

Biological target: T1, Protein Rev [8-24] (Human immunodeficiency virus 1, UniProt P05866)
T1 construct: 8-24
Experiment: HIV-1 Rev-RRE RNA binding disruptors, dose response, biochemical, protein-RNA interaction (AID 842)

| SMILES | IC50 [µM] |
| --- | --- |
| CC[n+]1c(CC=Nc2ccccc2)oc2ccccc21 [3-Ethyl-2-(2-phenylamino-vinyl)-benzooxazol-3-ium] | 5.66 |
| Cc1[nH]n(-c2ccccc2)c(=O)c1N=Nc1ccc(N)cc1 [4-(4-aminophenyl)azo-5-methyl-2-phenyl-4H-pyrazol-3-one] | > 79.4 |
